Reference: article PMC3390974 (ACS medicinal chemistry letters, 2011)

Columns and labels:
Test in all cases: Gαq-mediated intracellular calcium mobilization
human 5-HT2B receptor = human 5-HT2B receptor (Homo sapiens, UniProt P41595); conditions: calcium flux, HEK-293
human 5-HT2A receptor = human 5-HT2A receptor (Homo sapiens, UniProt P28223); conditions: calcium flux, HEK-293
[1] = biological target: T1, human 5-HT2C (INI) receptor (Homo sapiens, UniProt P28335); conditions: for Emax: HEK293, read-out: 5-HT2C Emax, percentage of maximal activation by 5-HT, or activation at 10 μM for NA; for agonism at the 5-HT2C receptor (in words): calcium flux, HEK-293
T1 sequence (P28335 33-458): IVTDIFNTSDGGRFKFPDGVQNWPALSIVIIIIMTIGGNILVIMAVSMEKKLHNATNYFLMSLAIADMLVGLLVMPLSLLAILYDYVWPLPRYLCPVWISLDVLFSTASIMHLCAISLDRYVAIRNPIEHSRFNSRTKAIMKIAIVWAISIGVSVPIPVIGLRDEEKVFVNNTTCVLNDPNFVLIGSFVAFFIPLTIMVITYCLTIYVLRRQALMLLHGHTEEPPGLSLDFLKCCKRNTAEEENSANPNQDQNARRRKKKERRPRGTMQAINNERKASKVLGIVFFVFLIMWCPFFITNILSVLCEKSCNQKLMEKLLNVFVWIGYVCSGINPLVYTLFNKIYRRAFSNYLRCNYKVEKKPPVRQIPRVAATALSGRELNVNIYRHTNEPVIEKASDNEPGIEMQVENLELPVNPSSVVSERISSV

Sequence of human 5-HT2B receptor (P41595 whole entry): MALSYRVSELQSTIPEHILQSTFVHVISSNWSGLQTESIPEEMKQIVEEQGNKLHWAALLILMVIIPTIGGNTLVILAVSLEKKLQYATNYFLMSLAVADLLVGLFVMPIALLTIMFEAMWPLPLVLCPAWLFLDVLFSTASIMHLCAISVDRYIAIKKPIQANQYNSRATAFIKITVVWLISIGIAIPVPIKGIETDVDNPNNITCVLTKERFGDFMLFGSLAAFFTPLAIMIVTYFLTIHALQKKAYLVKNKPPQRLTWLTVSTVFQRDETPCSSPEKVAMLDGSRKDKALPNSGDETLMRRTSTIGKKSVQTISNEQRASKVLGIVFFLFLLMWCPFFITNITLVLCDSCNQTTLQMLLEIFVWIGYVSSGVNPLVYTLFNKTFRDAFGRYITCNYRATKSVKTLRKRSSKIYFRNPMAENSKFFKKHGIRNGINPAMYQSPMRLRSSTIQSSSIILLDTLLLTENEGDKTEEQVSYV
Sequence of human 5-HT2A receptor (P28223 whole entry): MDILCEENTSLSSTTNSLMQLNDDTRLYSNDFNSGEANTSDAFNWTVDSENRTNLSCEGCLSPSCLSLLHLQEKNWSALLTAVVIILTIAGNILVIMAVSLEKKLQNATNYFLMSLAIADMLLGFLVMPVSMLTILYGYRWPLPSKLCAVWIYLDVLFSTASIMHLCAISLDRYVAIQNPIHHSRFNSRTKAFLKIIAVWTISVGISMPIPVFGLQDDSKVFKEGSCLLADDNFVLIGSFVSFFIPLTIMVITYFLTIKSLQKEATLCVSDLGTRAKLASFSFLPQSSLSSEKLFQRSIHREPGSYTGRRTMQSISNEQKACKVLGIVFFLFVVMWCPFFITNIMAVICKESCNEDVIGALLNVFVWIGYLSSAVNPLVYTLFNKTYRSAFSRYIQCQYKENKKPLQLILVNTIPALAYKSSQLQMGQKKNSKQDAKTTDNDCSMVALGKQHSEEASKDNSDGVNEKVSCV

Row | SMILES | agonism at the 5-HT2B receptor (in words) (human 5-HT2B receptor) | agonism at the 5-HT2A receptor (in words) (human 5-HT2A receptor) | agonism at the 5-HT2C receptor (in words) [1] | also measured
1 | Cl.NC[C@H]1C[C@@H]1c1ccccc1OCC1CC1 (racemic) [Compound 11e, trans-[2-(2-cyclopropylmethoxyphenyl)cyclopropyl]methylamine hydrochloride] | inactive | – | – | –
2 | Cl.NC[C@H]1C[C@@H]1c1ccccc1OCC1CC1 (single isomer, unassigned) [(+)-11e, (+)-trans-[2-(2-cyclopropylmethoxyphenyl)cyclopropyl]methylamine hydrochloride] | activate neither | activate neither | – | agonism at the 5-HT2B receptor (in words) (human 5-HT2B receptor; listed as (+)-trans-[2-(2-cyclopropylmethoxyphenyl)cyclopropyl]methylamine hydrochloride): no detectable agonism
3 | COc1ccc(-c2ccccc2)cc1[C@H]1C[C@@H]1CN [Compound 9a] | – | – | – | EC50 [1]: 3.47 µM; Emax [1]: 67%
4 | COc1ccc(-c2ccccc2C)cc1[C@H]1C[C@@H]1CN [Compound 9b] | – | – | – | EC50 [1]: 3.8 µM; Emax [1]: 64%
5 | CCCCc1ccc(-c2ccc(OC)c([C@H]3C[C@@H]3CN)c2)cc1.Cl [Compound 9h] | failure | failure | failure | –
6 | Cc1ccc(OCC(C)C)c([C@H]2C[C@@H]2CN)c1.Cl [Compound 10a] | – | – | much less potent | –
7 | CCCCOc1ccc(C)cc1[C@H]1C[C@@H]1CN.Cl [Compound 10b] | – | – | much less potent | –
8 | CC(C)COc1ccccc1[C@H]1C[C@@H]1CN.Cl [Compound 11c] | inactive | – | – | –
9 | CCCCCOc1ccccc1[C@H]1C[C@@H]1CN.Cl [Compound 11d] | abolished agonist activity | abolished agonist activity | abolished agonist activity | –
10 | Cl.NC[C@H]1C[C@@H]1c1ccccc1OCC1CCCCC1 [Compound 11g] | abolished agonist activity | abolished agonist activity | abolished agonist activity | –
